The target of the experiment is T1, human FXR (NR1H4) (Homo sapiens, UniProt Q96RI1).
T1 construct: host or cells: CHO (Chinese hamster ovary) reporter cells
T1 sequence (Q96RI1 1-486): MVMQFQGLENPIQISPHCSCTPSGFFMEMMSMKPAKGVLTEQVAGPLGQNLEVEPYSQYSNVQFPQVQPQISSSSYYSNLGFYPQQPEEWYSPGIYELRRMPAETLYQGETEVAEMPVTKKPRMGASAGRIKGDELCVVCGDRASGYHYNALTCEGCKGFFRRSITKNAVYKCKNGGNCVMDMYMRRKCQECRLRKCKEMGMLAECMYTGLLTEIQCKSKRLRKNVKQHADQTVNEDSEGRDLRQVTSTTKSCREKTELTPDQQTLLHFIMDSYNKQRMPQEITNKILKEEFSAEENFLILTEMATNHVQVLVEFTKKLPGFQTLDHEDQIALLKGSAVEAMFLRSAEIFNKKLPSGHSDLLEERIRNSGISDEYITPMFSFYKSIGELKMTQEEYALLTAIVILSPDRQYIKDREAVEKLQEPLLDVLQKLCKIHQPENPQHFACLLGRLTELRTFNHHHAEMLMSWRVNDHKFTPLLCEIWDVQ
The experiment can be described thus: Human FXR (NR1H4) Assay: Gal4 promoter driven luciferase reporter transactivation in CHO cells (Indigo Bioscience kit IB00601). As to Efficacy (%): efficacy normalized to CDCA set as 100%. It counts as cell-based. The settings on record: for Emax: CHO, read-out: Efficacy (%); for EC50: Human FXR (NR1H4) reporter assay, potency ranges. The essentials: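 Luminescence read-out after 22 h exposure quantified FXR transactivation; compounds were tested at several doses, 0.2% DMSO, in CHO cells engineered with human NR1H4 and a luciferase gene linked to an FXR-responsive promoter.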
In general terms: A reporter such as luciferase makes a cellular process visible.

By EC50 is commonly meant the concentration giving half of the maximal effect. Low values mean greater potency, high ones weaker potency. Turning to `COc1cc(C(=O)NS(=O)(=O)C2(C)CC2)cc2sc(N3C4CCC3CC(NCc3c(-c5c(Cl)cccc5Cl)noc3C3CC3)C4)nc12` (centres unmarked) [Example 304], the Emax is 139% and the EC50 is under 1 nM.
On the same counts, the results for `CC1(S(=O)(=O)NC(=O)c2ccc3nc(N4CCC(NCc5c(-c6c(Cl)cccc6Cl)noc5C5CC5)CC4)sc3c2)CC1` [Example 305] are 139% and 100 to 1000 nM.
In the case of `CC1(S(=O)(=O)NC(=O)c2cc(OC(F)F)c3nc(N4C5CCC4CC(NCc4c(-c6c(Cl)cccc6Cl)noc4C4CC4)C5)sc3c2)CC1` [Example 323, 2-((1R,3r,5S)-3-(((5-cyclopropyl-3-(2,6-dichlorophenyl)isoxazol-4-yl)methyl)amino)-8-azabicyclo[3.2.1]octan-8-yl)-4-(difluoromethoxy)-N-((1-methylcyclopropyl)sulfonyl)benzo[d]thiazole-6-carboxamide], the Emax worked out at 150% and the EC50 is under 1 nM.
Taken in the same sequence, the figures for `O=C(NS(=O)(=O)N1CCCCC1)c1cc(OC(F)F)c2nc(N3C4CCC3CC(NCc3c(-c5c(Cl)cccc5Cl)noc3C3CC3)C4)sc2c1` (centres unmarked) [Example 328] were 146% and under 1 nM.
Take `COc1nc2cc(C(=O)NS(=O)(=O)C3(C)CC3)ccc2nc1N1C2CCC1CC(NCc1c(-c3c(Cl)cccc3Cl)noc1C1CC1)C2` (centres unmarked) [Example 342]: the Emax was 76% and the EC50 lay within 1 to 100 nM.
Taken in the same sequence, the figures for `O=C(NS(=O)(=O)N1CCCC1)c1cc(F)c2nc(N3C4CCC3CC(NCc3c(-c5c(Cl)cccc5Cl)noc3C3CC3)C4)sc2c1` (centres unmarked) [Example 400-1] were 210% and 1 to 100 nM.
On the same counts, the results for `CC(C)Oc1cc(C(=O)NS(=O)(=O)C2CC2)cc2sc(N3CCC(NCc4c(-c5c(Cl)cccc5Cl)noc4C4CC4)CC3)nc12` [Example 400-3] are 104% and 1 to 100 nM.
Consider `CC(C)Oc1cc(C(=O)NS(=O)(=O)C2(C)CC2)cc2sc(N3CCC(NCc4c(-c5c(Cl)cccc5Cl)noc4C4CC4)CC3)nc12` [Example 400-4], for which the Emax stood at 97.5% and the concentration giving a half-maximal response (EC50) was 1 to 100 nM.
On the same counts, the results for `CC(C)Oc1cc(C(=O)NS(=O)(=O)N2CCCC2)cc2sc(N3CCC(NCc4c(-c5c(Cl)cccc5Cl)noc4C4CC4)CC3)nc12` [Example 400-5] are 110% and 1 to 100 nM.
On the same counts, the results for `CC(C)Oc1cc(C(=O)NS(=O)(=O)N2CCCCC2)cc2sc(N3CCC(NCc4c(-c5c(Cl)cccc5Cl)noc4C4CC4)CC3)nc12` [Example 400-6] are 73.5% and 1 to 100 nM.
For `O=C(NS(=O)(=O)N1CCCC1)c1cc(F)c2nc(N3CCC(NCc4c(-c5c(Cl)cccc5Cl)noc4C4CC4)CC3)sc2c1` [Example 400-7], the Emax worked out at 91% and the EC50 fell in the range of 1 to 100 nM.
Taken in the same sequence, the figures for `O=C(NS(=O)(=O)N1CCCCC1)c1cc(F)c2nc(N3CCC(NCc4c(-c5c(Cl)cccc5Cl)noc4C4CC4)CC3)sc2c1` [Example 400-8] were 79% and 1 to 100 nM.
On the same counts, the results for `O=C(NS(=O)(=O)C1CC1)c1cc(F)c2nc(N3CCC(NCc4c(-c5c(Cl)cccc5Cl)noc4C4CC4)CC3)sc2c1` [Example 400-9] are 37.5% and 100 to 1000 nM.
As for `CC1(S(=O)(=O)NC(=O)c2cc(F)c3nc(N4CCC(NCc5c(-c6c(Cl)cccc6Cl)noc5C5CC5)CC4)sc3c2)CC1` [Example 400-10], the Emax is 68% and the EC50 lay in the range of 100 to 1000 nM.
Turning to `Cc1cc2nc(N3C4CCC3CC(NCc3c(-c5c(Cl)cccc5Cl)noc3C3CC3)C4)sc2cc1C(=O)NS(=O)(=O)C1(C)CC1` (centres unmarked) [Example 400-11], the Emax was determined as 79.3% and the EC50 is under 1 nM.
On the same counts, the results for `Cc1cc2nc(N3C4CCC3CC(NCc3c(-c5c(Cl)cccc5Cl)noc3C3CC3)C4)sc2cc1C(=O)NS(=O)(=O)N1CCCCC1` (centres unmarked) [Example 400-12] are 115% and under 1 nM.
On the same counts, the results for `Cc1c(C(=O)NS(=O)(=O)C2(C)CC2)ccc2nc(N3C4CCC3CC(NCc3c(-c5c(Cl)cccc5Cl)noc3C3CC3)C4)sc12` (centres unmarked) [Example 400-13] are 83.3% and 1 to 100 nM.
Turning to `Cc1c(C(=O)NS(=O)(=O)N2CCCCC2)ccc2nc(N3C4CCC3CC(NCc3c(-c5c(Cl)cccc5Cl)noc3C3CC3)C4)sc12` (centres unmarked) [Example 400-14], the Emax is 119% and the EC50 is under 1 nM.
On the same counts, the results for `CCOc1cc(C(=O)NS(=O)(=O)C2(C)CC2)cc2sc(N3C4CCC3CC(NCc3c(-c5c(Cl)cccc5Cl)noc3C3CC3)C4)nc12` (centres unmarked) [Example 400-15] are 104% and under 1 nM.
As to `CCOc1cc(C(=O)NS(=O)(=O)N2CCCCC2)cc2sc(N3C4CCC3CC(NCc3c(-c5c(Cl)cccc5Cl)noc3C3CC3)C4)nc12` (centres unmarked) [Example 400-16], the Emax was 87.3% and the EC50 was under 1 nM.
Taken in the same sequence, the figures for `CC(C)Oc1cc(C(=O)NS(=O)(=O)C2(C)CC2)cc2sc(N3C4CCC3CC(NCc3c(-c5c(Cl)cccc5Cl)noc3C3CC3)C4)nc12` (centres unmarked) [Example 400-18] were 98% and under 1 nM.
Take `CC(C)Oc1cc(C(=O)NS(=O)(=O)N2CCCCC2)cc2sc(N3C4CCC3CC(NCc3c(-c5c(Cl)cccc5Cl)noc3C3CC3)C4)nc12` (centres unmarked) [Example 400-20]: the Emax came to 43.6% and the EC50 was in the range of 1 to 100 nM.
In the case of `CC1(S(=O)(=O)NC(=O)c2cc3sc(N4C5CCC4CC(NCc4c(-c6c(Cl)cccc6Cl)noc4C4CC4)C5)nc3cc2F)CC1` (centres unmarked) [Example 400-22], the Emax turned out to be 83.2% and the EC50 is under 1 nM.
For `O=C(NS(=O)(=O)N1CCCCC1)c1cc2sc(N3C4CCC3CC(NCc3c(-c5c(Cl)cccc5Cl)noc3C3CC3)C4)nc2cc1F` (centres unmarked) [Example 400-24], the Emax was 88.2% and the EC50 was under 1 nM.
As to `O=C(NS(=O)(=O)C1CC1)c1cnc2nc(N3C4CCC3CC(NCc3c(-c5c(Cl)cccc5Cl)noc3C3CC3)C4)sc2n1` (centres unmarked) [Example 400-25], the Emax was 72% and the EC50 was 1 to 100 nM.
On the same counts, the results for `CC1(S(=O)(=O)NC(=O)c2cnc3nc(N4C5CCC4CC(NCc4c(-c6c(Cl)cccc6Cl)noc4C4CC4)C5)sc3n2)CC1` (centres unmarked) [Example 400-26] are 97.2% and under 1 nM.
As to `Cc1cc(C(=O)NS(=O)(=O)C2(C)CC2)cc2sc(N3C4CCC3CC(NCc3c(-c5c(Cl)cccc5Cl)noc3C3CC3)C4)nc12` (centres unmarked) [Example 400-29], the Emax amounted to 118% and the EC50 was under 1 nM.
Taken in the same sequence, the figures for `CC1(S(=O)(=O)NC(=O)c2cc3sc(N4C5CCC4CC(NCc4c(-c6c(Cl)cccc6Cl)noc4C4CC4)C5)nc3cc2-c2ccccc2)CC1` (centres unmarked) [Example 400-32] were 116% and under 1 nM.
Taken in the same sequence, the figures for `CC1(S(=O)(=O)NC(=O)c2cc3sc(N4C5CCC4CC(NCc4c(-c6c(Cl)cccc6Cl)noc4C4CC4)C5)nc3c3ccccc23)CC1` (centres unmarked) [Example 400-33] were 91% and under 1 nM.
Consider `CC1(S(=O)(=O)NC(=O)c2cc(C3CC3)c3nc(N4C5CCC4CC(NCc4c(-c6c(Cl)cccc6Cl)noc4C4CC4)C5)sc3c2)CC1` (centres unmarked) [Example 400-35], for which the Emax came to 117% and the EC50 lay within 1 to 100 nM.
Taken in the same sequence, the figures for `O=C(NS(=O)(=O)C1CC1)c1ccc(N2C3CCC2CC(NCc2c(-c4c(Cl)cccc4Cl)noc2C2CC2)C3)nc1` (centres unmarked) [Example 400-37] were 82.5% and 1 to 100 nM.
On the same counts, the results for `O=C(O)c1ccc2nc(N3C4CCC3CC(NCc3c(-c5ccccc5OC(F)(F)F)noc3C3CC3)C4)sc2c1` (centres unmarked) [Example 402] are 112% and 1 to 100 nM.
Take `COC(=O)c1cc(F)c2nc(N3C4CCC3CC(NCc3c(-c5ccccc5OC(F)(F)F)noc3C3CC3)C4)sc2c1` (centres unmarked) [Example 403]: the Emax is 61% and the concentration giving a half-maximal response (EC50) is 1 to 100 nM.
With `O=C(O)c1cc(F)c2nc(N3C4CCC3CC(NCc3c(-c5ccccc5OC(F)(F)F)noc3C3CC3)C4)sc2c1` (centres unmarked) [Example 404], the Emax is 88% and the EC50 lay in the range of 1 to 100 nM.
Taken in the same sequence, the figures for `COC(=O)c1cc(OC(C)C)c2nc(N3C4CCC3CC(NCc3c(-c5ccccc5OC(F)(F)F)noc3C3CC3)C4)sc2c1` (centres unmarked) [Example 413] were 118% and 1 to 100 nM.
For the compound `CC(C)Oc1cc(C(=O)O)cc2sc(N3C4CCC3CC(NCc3c(-c5ccccc5OC(F)(F)F)noc3C3CC3)C4)nc12` (centres unmarked) [Example 414], the Emax amounted to 121% and the half-maximal effective concentration (EC50) was under 1 nM.
With `O=C(O)c1ccc2nc(N3C4CCC3CC(NCc3c(-c5ccccc5OC(F)(F)F)noc3C3CC3)C4)ccc2c1` (centres unmarked) [Example 514], the Emax was found to be 100% and the EC50 was in the range of 1 to 100 nM.
On the same counts, the results for `O=C(O)c1ccc(N2C3CCC2CC(NCc2c(-c4ccccc4OC(F)(F)F)noc2C2CC2)C3)nc1` (centres unmarked) [Example 597] are 83.5% and 1 to 100 nM.
On the same counts, the results for `O=C(O)c1ccc2nc(N3CCC(NCc4c(-c5ccccc5OC(F)(F)F)noc4C4CC4)CC3)sc2c1` [Example 638] are 107% and 100 to 1000 nM.
Taken in the same sequence, the figures for `COC(=O)c1cc(OC(C)C)c2nc(N3CCC(NCc4c(-c5ccccc5OC(F)(F)F)noc4C4CC4)CC3)sc2c1` [Example 639] were 13% and 100 to 1000 nM.

For the origin of these results see US10450306B2, “Isoxazole analogs as FXR agonists and methods of use thereof” (Enanta Pharmaceuticals, Inc., priority 2016, dated 2019).
